The results in this text go back to ChEMBL document CHEMBL4130353, “2-Substituted 3,7,8-trimethylnaphtho[1,2-b]furan-4,5-diones as specific L-shaped NQO1-mediated redox modulators for the treatment of non-small cell lung cancer” (Eur J Med Chem, 2017).

Data set [1] deals with A549. Put plainly: Effect on total AKT protein levels in human A549 cells at 10 uM after 3 hrs by Western blot analysis relative to control. Type of data set: ADME, cell-based. The following applies: a549, 3 h.
For data set [2], the system named is A549. The data set can be described thus: Effect on total AKT protein levels in human A549 cells at 10 uM after 3 hrs in presence of DIC by Western blot analysis relative to control. The class given is ADME, cell-based. The following applies: a549, 3 h. In general terms: A western blot detects proteins with antibodies after separation by electrophoresis.
The subject of data set [3] is NCI-H596. The data set can be described thus: Cytotoxicity against human NCI-H596 cells assessed as cell growth inhibition preincubated for 24 hrs followed by compound washout measured after 72 hrs by MTT assay. Type of data set: functional, cell-based. A general note: Tetrazolium dyes change colour on reduction, which living cells bring about.
For data set [4], the system named is MCF7. Put plainly: Cytotoxicity against human MCF7 cells assessed as cell growth inhibition preincubated for 24 hrs followed by compound washout measured after 72 hrs by MTT assay. Type of data set: functional, cell-based.
Data set [5] concerns the target NAD(P)H dehydrogenase [quinone] 1 (Homo sapiens) (UniProt P15559). Put plainly: Substrate activity at NQO1 in human A549 cells assessed as induction of ROS-induced Akt phosphorylation at […] at 5 uM after 3 hrs by Western blot analysis relative to control. The class given is cell-based.
Data set [6] shares this target. Put plainly: Substrate activity at NQO1 in human A549 cells assessed as induction of ROS-induced Akt phosphorylation at […] at 10 uM after 3 hrs in presence of NAC by Western blot analysis relative to control. The class given is cell-based.
For data set [7], the system named is A549. Put plainly: Reduction of intracellular GSH levels in human A549 cells xenografted in athymic nude mouse at 15 to 30 mg/kg, iv administered every other day for 3 weeks by fluorescence-based assay. The class given is functional, organism-based. (In general: Xenograft models place foreign cells or tissue in a host animal.)
The subject of data set [8] is A549. Put plainly: Effect on total p38 protein levels in human A549 cells at 5 uM after 3 hrs by Western blot analysis relative to control. The class given is ADME, cell-based. As to conditions: a549, 3 h.
For data set [9], the target named is NAD(P)H dehydrogenase [quinone] 1 (Homo sapiens) (UniProt P15559). The data set can be described thus: Substrate activity at NQO1 in human A549 cells assessed as induction of ROS-induced p38 phosphorylation at T180/Y182 after 3 hrs by Western blot analysis. Type of data set: cell-based.
NAD(P)H dehydrogenase [quinone] 1 (Homo sapiens), sequence (P15559 whole entry): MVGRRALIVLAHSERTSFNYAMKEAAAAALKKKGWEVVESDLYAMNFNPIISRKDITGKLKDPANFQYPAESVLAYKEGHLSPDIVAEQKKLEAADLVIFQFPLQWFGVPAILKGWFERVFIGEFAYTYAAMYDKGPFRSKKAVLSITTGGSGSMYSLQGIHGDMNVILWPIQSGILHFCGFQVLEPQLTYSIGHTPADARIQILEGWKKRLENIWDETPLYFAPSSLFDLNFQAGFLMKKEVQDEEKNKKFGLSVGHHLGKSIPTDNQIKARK
Data set [10] has the same target. Put plainly: Substrate activity at NQO1 in human A549 cells assessed as induction of enzyme-catalyzed lipid peroxidation by measuring MDA equivalents per protein at 10 uM after 24 hrs by TBARS assay. The class given is cell-based.
A short description of data set [11]: Solubility of the compound in diluted HCl buffer at pH 3. The class given is physicochemical.
In data set [12] the target is NAD(P)H dehydrogenase [quinone] 1 (Homo sapiens) (UniProt P15559). The data set can be described thus: Substrate activity at NQO1 in human A549 cells assessed as induction of ROS-induced Akt phosphorylation at […] at 1 uM after 3 hrs by Western blot analysis relative to control. The class given is cell-based.
In data set [13] the test system is A549. The data set can be described thus: Effect on total AKT protein levels in human A549 cells at 1 uM after 3 hrs by Western blot analysis relative to control. As to conditions: a549, 3 h. The class given is ADME, cell-based.
For data set [14], the species on record is Homo sapiens. Put plainly: Selectivity ratio for substrate activity at recombinant human NQO1 to substrate activity at human CPR.
Data set [15] is filed under the species Homo sapiens. The data set can be described thus: Selectivity ratio for substrate activity at recombinant human NQO1 to substrate activity at CBR (unknown origin).
Data set [16] has as its target NAD(P)H dehydrogenase [quinone] 1 (Homo sapiens) (UniProt P15559). The data set can be described thus: Substrate activity at NQO1 in human A549 cells assessed as induction of ROS-induced Akt phosphorylation at S473 at 10 uM after 3 hrs by Western blot analysis relative to control. The class given is cell-based.
For data set [17] the target is unchanged. Put plainly: Substrate activity at NQO1 in human A549 cells assessed as induction of ROS-induced Akt phosphorylation at S473 at 10 uM after 3 hrs in presence of NAC by Western blot analysis relative to control. The class given is cell-based.
The subject of data set [18] is A549/TR. The data set can be described thus: Cytotoxicity against human A549/TR cells assessed as cell growth inhibition preincubated for 24 hrs followed by compound washout measured after 72 hrs by MTT assay. The class given is functional, cell-based.
The species named for data set [19] is Danio rerio. The data set can be described thus: Hepatotoxicity in 48 hrs post fertilized transgenic liver zebrafish larvae model expressing LFABP:EGFP protein at 10 uM measured after 48 hrs post dose by fluorescence based assay. Type of data set: organism-based. As to conditions: in vivo.
Data set [20] concerns Mus musculus. Put plainly: Toxicity in athymic nude mouse xenografted with human A549 cells assessed as effect on body weight at 50 mg/kg, iv administered every other day for 3 weeks. Type of data set: organism-based. The following applies: in vivo, 504 h.
The test system of data set [21] is A549. Put plainly: Cytotoxicity against human A549 cells assessed as cell growth inhibition preincubated for 24 hrs followed by compound washout measured after 72 hrs by MTT assay. The class given is functional, cell-based.
Data set [22] has as its target NAD(P)H dehydrogenase [quinone] 1 (Homo sapiens) (UniProt P15559). The data set can be described thus: Substrate activity at NQO1 in human A549 cells assessed as induction of enzyme-catalyzed ROS production at 10 uM after 1 to 3 hrs in presence of NAC by DCFH-DA-based flow cytometry. Type of data set: cell-based.
In data set [23] the test system is L02. Put plainly: Induction of intracellular ROS levels in human L02 cells at 10 uM after 1 to 3 hrs by DCFH-DA-based flow cytometry. Type of data set: cell-based. The following applies: l02, 10 µM.

Molecules are shown by their SMILES. Calls of active or inactive are those of the source. The rule behind the calls is not given here. Where only a bound is given, the exact number is not on record here.

For `Cc1cc2c(cc1C)-c1oc(CNc3ccc(CN4CCOCC4)cc3)c(C)c1C(=O)C2=O`, the “fold change (FC)” value in [1] came out at 1.3; in data set [2] it was 1.15; in data set [5], 2.96; in [6] it was 2.8; in [8], 1.1; in data set [12] it was 2.38. The “fold change (FC)” value in data set [13] amounted to 1.07; in [16] it was 2.05; in data set [17] it was 0.32. Moreover, the IC50 in [3] was 30 µM; in data set [4] it was 4.7 µM; in data set [18], 2.2 µM; in data set [21], 2.1 µM. For the same compound, the result in [7] was Active. In addition, the Activity result in data set [9] was “Dose-dependent effect”; in data set [10], 18.6 nmol/mg; in data set [19] it was “Non-Toxic”; in data set [20], “Non-Toxic”; in data set [23], “Non-Toxic”. In addition, the solubility in data set [11] is above 1000 µg/mL. The values for the Selectivity ratio in [14] and in data set [15] were 20.8 and 8.49, respectively. Also, the outcome in [22] was inactive.

The term IC50 denotes the point on the concentration scale where inhibition reaches its midpoint. What is called solubility is the dissolved amount per volume that the medium holds. Low readings indicate a poorly soluble substance, high ones a readily soluble substance.
